In patent US20240358692A1, “TREATMENT OF SCLERODERMA” (Aisa Pharma, Inc., priority 2023, published 2024):

Test system: participants with SSc-RP
Assay: Average severity of weekly RP attacks (VAS 0-10)
Assay type: in vivo, human
Conditions: for Average Severity (0-10) of weekly RP attacks, Median / Average Severity (0-10) of weekly RP attacks, Mean / Average severity of weekly RP attacks, Percent Change from Baseline, Mean / Average severity of weekly RP attacks, Change from Baseline, Mean / Average severity of weekly RP attacks, Percent Change from Baseline, Median / Average severity of weekly RP attacks, Change from Baseline, Median: all attacks
Text: The absolute change in average severity of weekly RP attacks (VAS 0-10 cm scale) from baseline to the end of each Dosing Period was and will be a secondary outcome variable. The sponsor-developed participant-informed diary will be used to record data. Average severity of weekly RP attacks is defined as the total severity scores of RP attacks divided by total number of RP attacks within the last 7 days of each dosing period. Total severity scores of RP attacks during the last 7 days of screening period divided by the total number of RP attacks will be used as baseline for the analysis of all periods. The variable will be calculated similar to frequency data as before.

[1] = Pooled Cilnidipine 10 mg and Cilnidipine 10 mg + Tadalafil 5 mg, Excluding Outliers, 1st Baseline RCS subgroup, ITT Part A, last 7 days of dosing period
[2] = Pooled Cilnidipine 10 mg and Cilnidipine 10 mg + Tadalafil 5 mg, Excluding Outliers, 2nd Baseline RCS subgroup, ITT Part A, last 7 days of dosing period
[3] = Pooled Cilnidipine 10 mg and Cilnidipine 10 mg + Tadalafil 5 mg, ITT Part A, last 7 days of dosing period
[4] = Pooled Cilnidipine 10 mg and Cilnidipine 10 mg + Tadalafil 5 mg, Excluding Outliers, by Baseline RCS: second subgroup of Table C-8, ITT Part A
[5] = Pooled Cilnidipine 10 mg and Cilnidipine 10 mg + Tadalafil 5 mg, by Baseline RCS: second subgroup of Table C-7, ITT Part A
[6] = Pooled Cilnidipine 20 mg and Cilnidipine 20 mg + Tadalafil 5 mg, 1st Baseline RCS subgroup, ITT Part A, last 7 days of dosing period
[7] = Pooled Cilnidipine 20 mg and Cilnidipine 20 mg + Tadalafil 5 mg, 2nd Baseline RCS subgroup, ITT Part A, last 7 days of dosing period
[8] = Pooled Cilnidipine 20 mg and Cilnidipine 20 mg + Tadalafil 5 mg, Excluding Outliers, 1st Baseline RCS subgroup, ITT Part A, last 7 days of dosing period
[9] = Pooled Cilnidipine 20 mg and Cilnidipine 20 mg + Tadalafil 5 mg, Excluding Outliers, 2nd Baseline RCS subgroup, ITT Part A, last 7 days of dosing period
[10] = Pooled Cilnidipine 20 mg and Cilnidipine 20 mg + Tadalafil 5 mg, ITT Part A, last 7 days of dosing period
[11] = Pooled Cilnidipine 20 mg and Cilnidipine 20 mg + Tadalafil 5 mg, Excluding Outliers, by Baseline RCS: first subgroup of Table C-8, ITT Part A
[12] = Pooled Cilnidipine 20 mg and Cilnidipine 20 mg + Tadalafil 5 mg, by Baseline RCS: first subgroup of Table C-7, ITT Part A
[13] = Pooled Cilnidipine, 1st Baseline RCS subgroup, ITT Part A, last 7 days of dosing period
[14] = Pooled Cilnidipine, Excluding Outliers, 1st Baseline RCS subgroup, ITT Part A, last 7 days of dosing period
[15] = Pooled Cilnidipine, ITT Part A, last 7 days of dosing period
[16] = Pooled Cilnidipine, Excluding Outliers, ITT Part A
[17] = Pooled Cilnidipine, Excluding Outliers, by Baseline RCS: first subgroup of Table C-8, ITT Part A
[18] = Pooled Cilnidipine, by Baseline RCS: first subgroup of Table C-7, ITT Part A
[19] = Pooled Cilnidipine, excluding outliers, ITT Part A
[20] = Pooled Cilnidipine, excluding outliers, severity 0-10, ITT Part A
[21] = Pooled Cilnidipine, severity 0-10, ITT Part A

## COCCOC(=O)C1=C(C)NC(C)=C(C(=O)OC/C=C/c2ccccc2)C1c1cccc([N+](=O)[O-])c1 (centres unmarked) [Cilnidipine]
[1]
  Average Severity of Weekly Symptomatic RP Attacks, Change from Baseline, Median: −1.22
  Average Severity of Weekly Symptomatic RP Attacks, Mean: 3.34
  Average Severity of Weekly Symptomatic RP Attacks, Median: 3.34
  Average Severity of Weekly Symptomatic RP Attacks, Percent Change from Baseline, Mean: −20.18%
  Average Severity of Weekly Symptomatic RP Attacks, Percent Change from Baseline, Median: −20.18%
[2]
  Average Severity of Weekly Symptomatic RP Attacks, Change from Baseline, Mean: −1.13
  Average Severity of Weekly Symptomatic RP Attacks, Change from Baseline, Median: −1.13
  Average Severity of Weekly Symptomatic RP Attacks, Mean: 5.23
  Average Severity of Weekly Symptomatic RP Attacks, Median: 5.23
  Average Severity of Weekly Symptomatic RP Attacks, Percent Change from Baseline, Mean: −17.81%
  Average Severity of Weekly Symptomatic RP Attacks, Percent Change from Baseline, Median: −17.81%
[3]
  Average Severity of Weekly RP Attacks (All Attacks), Change from Baseline, Mean: −1.34
  Average Severity of Weekly RP Attacks (All Attacks), Change from Baseline, Median: −1.32
  Average Severity of Weekly RP Attacks (All Attacks), Mean: 3.62
  Average Severity of Weekly RP Attacks (All Attacks), Median: 3.05
  Average Severity of Weekly RP Attacks (All Attacks), Percent Change from Baseline, Mean: −23.02%
  Average Severity of Weekly RP Attacks (All Attacks), Percent Change from Baseline, Median: −21.20%
Pooled Cilnidipine 10 mg and Cilnidipine 10 mg + Tadalafil 5 mg, Excluding Outliers, ITT Part A
  Average Severity (0-10) of weekly RP attacks, Median: 3.05
[4]
  Average Severity (0-10) of weekly RP attacks, Mean: 4.90
  Average Severity (0-10) of weekly RP attacks, Median: 4.90
  Average severity of weekly RP attacks, Percent Change from Baseline, Mean: −21.20%
Pooled Cilnidipine 10 mg and Cilnidipine 10 mg + Tadalafil 5 mg, by Baseline RCS: first subgroup of Table C-7, ITT Part A
  Average severity of weekly RP attacks, Change from Baseline, Mean: −1.35
[5]
  Average Severity (0-10) of weekly RP attacks, Mean: 4.90
  Average Severity (0-10) of weekly RP attacks, Median: 4.90
  Average severity of weekly RP attacks, Percent Change from Baseline, Mean: −21.20%
  Average severity of weekly RP attacks, Percent Change from Baseline, Median: −21.20%
[6]
  Average Severity of Weekly Symptomatic RP Attacks, Change from Baseline, Mean: −1.06
  Average Severity of Weekly Symptomatic RP Attacks, Change from Baseline, Median: −0.33
  Average Severity of Weekly Symptomatic RP Attacks, Mean: 2.85
  Average Severity of Weekly Symptomatic RP Attacks, Median: 2.40
  Average Severity of Weekly Symptomatic RP Attacks, Percent Change from Baseline, Mean: −24.28%
  Average Severity of Weekly Symptomatic RP Attacks, Percent Change from Baseline, Median: −12.02%
[7]
  Average Severity of Weekly Symptomatic RP Attacks, Change from Baseline, Mean: −1.79
  Average Severity of Weekly Symptomatic RP Attacks, Change from Baseline, Median: −1.79
  Average Severity of Weekly Symptomatic RP Attacks, Mean: 5.06
  Average Severity of Weekly Symptomatic RP Attacks, Median: 5.06
  Average Severity of Weekly Symptomatic RP Attacks, Percent Change from Baseline, Mean: −26.14%
  Average Severity of Weekly Symptomatic RP Attacks, Percent Change from Baseline, Median: −26.14%
[8]
  Average Severity of Weekly Symptomatic RP Attacks, Change from Baseline, Mean: −1.06
  Average Severity of Weekly Symptomatic RP Attacks, Change from Baseline, Median: −0.33
  Average Severity of Weekly Symptomatic RP Attacks, Mean: 2.85
  Average Severity of Weekly Symptomatic RP Attacks, Median: 2.40
  Average Severity of Weekly Symptomatic RP Attacks, Percent Change from Baseline, Mean: −24.28%
  Average Severity of Weekly Symptomatic RP Attacks, Percent Change from Baseline, Median: −12.02%
[9]
  Average Severity of Weekly Symptomatic RP Attacks, Change from Baseline, Mean: −1.79
  Average Severity of Weekly Symptomatic RP Attacks, Change from Baseline, Median: −1.79
  Average Severity of Weekly Symptomatic RP Attacks, Mean: 5.06
  Average Severity of Weekly Symptomatic RP Attacks, Median: 5.06
  Average Severity of Weekly Symptomatic RP Attacks, Percent Change from Baseline, Mean: −26.14%
  Average Severity of Weekly Symptomatic RP Attacks, Percent Change from Baseline, Median: −26.14%
[10]
  Average Severity of Weekly RP Attacks (All Attacks), Change from Baseline, Mean: −1.02
  Average Severity of Weekly RP Attacks (All Attacks), Change from Baseline, Median: −0.96
  Average Severity of Weekly RP Attacks (All Attacks), Mean: 3.35
  Average Severity of Weekly RP Attacks (All Attacks), Median: 3.06
  Average Severity of Weekly RP Attacks (All Attacks), Percent Change from Baseline, Mean: −21.83%
  Average Severity of Weekly RP Attacks (All Attacks), Percent Change from Baseline, Median: −16.40%
Pooled Cilnidipine 20 mg and Cilnidipine 20 mg + Tadalafil 5 mg, Excluding Outliers, ITT Part A
  Average severity of weekly RP attacks, Change from Baseline, Median: −0.96
[11]
  Average Severity (0-10) of weekly RP attacks, Median: 2.40
  Average severity of weekly RP attacks, Change from Baseline, Mean: −0.84
  Average severity of weekly RP attacks, Change from Baseline, Median: −0.39
[12]
  Average Severity (0-10) of weekly RP attacks, Median: 2.40
  Average severity of weekly RP attacks, Change from Baseline, Mean: −0.84
  Average severity of weekly RP attacks, Change from Baseline, Median: −0.39
Pooled Cilnidipine (n = 7)
  Severity (change): −16%
[13]
  Average Severity of Weekly Symptomatic RP Attacks, Change from Baseline, Mean: −0.87
  Average Severity of Weekly Symptomatic RP Attacks, Change from Baseline, Median: −0.33
  Average Severity of Weekly Symptomatic RP Attacks, Mean: 2.79
  Average Severity of Weekly Symptomatic RP Attacks, Median: 2.40
  Average Severity of Weekly Symptomatic RP Attacks, Percent Change from Baseline, Mean: −19.22%
  Average Severity of Weekly Symptomatic RP Attacks, Percent Change from Baseline, Median: −12.02%
[14]
  Average Severity of Weekly Symptomatic RP Attacks, Change from Baseline, Mean: −0.87
  Average Severity of Weekly Symptomatic RP Attacks, Change from Baseline, Median: −0.33
  Average Severity of Weekly Symptomatic RP Attacks, Mean: 2.79
  Average Severity of Weekly Symptomatic RP Attacks, Median: 2.40
  Average Severity of Weekly Symptomatic RP Attacks, Percent Change from Baseline, Mean: −19.22%
  Average Severity of Weekly Symptomatic RP Attacks, Percent Change from Baseline, Median: −12.02%
Pooled Cilnidipine, ITT Part A
  Average Severity of Weekly Symptomatic RP Attacks, Percent Change from Baseline, Mean: −19.22%
  Average Severity of Weekly Symptomatic RP Attacks, Percent Change from Baseline, Median: −12.02%
[15]
  Average Severity of Weekly RP Attacks (All Attacks), Change from Baseline, Mean: −0.71
  Average Severity of Weekly RP Attacks (All Attacks), Change from Baseline, Median: −0.20
  Average Severity of Weekly RP Attacks (All Attacks), Mean: 2.55
  Average Severity of Weekly RP Attacks (All Attacks), Median: 2.40
  Average Severity of Weekly RP Attacks (All Attacks), Percent Change from Baseline, Mean: −17.99%
  Average Severity of Weekly RP Attacks (All Attacks), Percent Change from Baseline, Median: −7.69%
[16]
  Average Severity (0-10) of weekly RP attacks, Median: 2.40
  Average severity of weekly RP attacks, Change from Baseline, Mean: −0.71
  Average severity of weekly RP attacks, Change from Baseline, Median: −0.20
[17]
  Average Severity (0-10) of weekly RP attacks, Mean: 2.55
  Average Severity (0-10) of weekly RP attacks, Median: 2.40
  Average severity of weekly RP attacks, Change from Baseline, Mean: −0.71
  Average severity of weekly RP attacks, Change from Baseline, Median: −0.20
  Average severity of weekly RP attacks, Percent Change from Baseline, Mean: −17.99%
  Average severity of weekly RP attacks, Percent Change from Baseline, Median: −7.69%
[18]
  Average Severity (0-10) of weekly RP attacks, Mean: 2.55
  Average Severity (0-10) of weekly RP attacks, Median: 2.40
  Average severity of weekly RP attacks, Change from Baseline, Mean: −0.71
  Average severity of weekly RP attacks, Change from Baseline, Median: −0.20
  Average severity of weekly RP attacks, Percent Change from Baseline, Mean: −17.99%
  Average severity of weekly RP attacks, Percent Change from Baseline, Median: −7.69%
[19]
  Average Severity of Weekly Symptomatic RP Attacks, Percent Change from Baseline, Mean: −19.22%
  Average Severity of Weekly Symptomatic RP Attacks, Percent Change from Baseline, Median: −12.02%
[20]
  Average Severity of Weekly Symptomatic RP Attacks, Change from Baseline, Mean: −0.87
  Average Severity of Weekly Symptomatic RP Attacks, Change from Baseline, Median: −0.33
  Average Severity of Weekly Symptomatic RP Attacks, Mean: 2.79
  Average Severity of Weekly Symptomatic RP Attacks, Median: 2.40
[21]
  Average Severity of Weekly Symptomatic RP Attacks, Change from Baseline, Mean: −0.87
  Average Severity of Weekly Symptomatic RP Attacks, Change from Baseline, Median: −0.33
  Average Severity of Weekly Symptomatic RP Attacks, Mean: 2.79
  Average Severity of Weekly Symptomatic RP Attacks, Median: 2.40
Cilnidipine monotherapy 10 mg vs 20 mg (n=3)
  severity of attacks, dose response: 20 mg reducing severity more than 10 mg
